Source: patent US8889661B2 (Teva Pharmaceutical Industries, Ltd., priority 2010, dated 2014)

Legend:
[1] = test system: MRL/lpr lupus mouse model; experiment: Non-GLP in vivo evaluation of laquinimod in the MRL/lpr lupus mouse model; conditions: for kidney glomerulonephritis (histopathology) / salivary gland inflammation (histopathological scoring): laquinimod 5 mg/kg, vs vehicle; for kidney glomerulonephritis (histopathology): MMF 100 mg/kg p.o.; for salivary gland inflammation (histopathological scoring): MMF 100 mg/kg
Protocol: This study evaluates the efficacy of laquinimod in the MRL/lpr lupus mouse model.
Animals were monitored until their urine proteinuria reached >200 mg/dL at which time they were enrolled in the study.
Proteinuria, ankle and paw diameters, dsDNA autoantibody levels and survival were monitored during in life portion of the study. At termination, blood samples were harvested for determination of dsDNA autoantibody levels, spleens were harvested and weighed then processed to isolate splenocytes which were counted. Kidney, lung, skin, lymph node, salivary gland and joints were harvested, processed for histological examination and scored by a histopathologist blind to the treatments.

(NZBxNZW)F1 mice [2] = conditions: for proteinuria (PU): Week 12 observation, vs vehicle (water), laquinimod 25 mg/kg p.o. daily, CTX once weekly i.p., MW U test; for immune complex deposition (ICD) in kidney: end of experiment (12 weeks), vs vehicle, scoring and image analysis
Description: Systemic Lupus Erythematosus (SLE) is a disorder of generalized autoimmunity characterized by defective T cell-mediated responses and the formation of a variety of antibodies reactive to self or altered self-antigens. SLE is mainly characterized by the presence of anti-DNA antibodies. Some of these auto-antibodies combine with the corresponding auto-antigens, forming immune complexes, either in the circulating blood or directly in tissues, resulting in severe damage. Glomerulonephritis induced by immune complexes is in fact the major cause of death in patients with SLE. (NZBxNZW)F1 are lupus-prone mice that develop an SLE-like disease spontaneously including anti-dsDNA antibodies (Abs), proteinuria and Immune Complex Deposits (ICD). The (NZBxNZW)F1 (NZB/W) murine model is the hallmark of spontaneous SLE.
MTX is an antimetabolite drug used in treatment of cancer and autoimmune diseases. It acts by inhibiting the metabolism of folic acid via the inhibition of dihydrofolate reductase and blocks DNA synthesis in rapidly proliferate cells. These actions include immunosuppression.
CTX was applied once weekly in a dose of […] i.p. MTX was applied 3 times a week p.o. at 35 μg/mouse.
Also, body weight changes were recorded weekly and at the end of experiment both kidneys were preserved, one for possible conventional histology and one for immune complex detection (ICD) in glomeruli. Evaluation of ICD was performed by scoring and by image analysis.
80 animals were involved in the study.

(NZBxNZW)F1 mice [3] = experiment: Survival dose response study of laquinimod in the (NZBxNZW)F1 model for SLE, 37 weeks; format: in vivo, mouse
Protocol: The positive control used was Cytoxan.
CTX was administered intraperitonealy once weekly, (200 μl/mouse). Blood samples were collected on Weeks 1, 5, 15 and 37. Serum samples were prepared for detection of anti-dsDNA antibodies. After 37 weeks (257 days) of treatment, mice were sacrificed.

(NZBxNZW)F1 mice [4] = experiment: Confirmation of efficacy of laquinimod in the (NZBxNZW)F1 model for SLE, 13 weeks; format: in vivo, mouse
Protocol: CTX was administered intraperitonealy once weekly, (200 μl/mouse). Blood samples were collected on Weeks 1, 5, and 11. Serum samples were prepared for detection of anti-dsDNA antibodies. After 13 weeks of treatment, mice were sacrificed and immune complex deposits in their kidneys were evaluated.

[5] = test system: active lupus nephritis patients; experiment: Phase IIa clinical trial of laquinimod in combination with standard of care (MMF and steroids) in active lupus nephritis; format: in vivo, human
Description: Approximately 45 Systemic Lupus Erythematosus patients with active lupus nephritis (LN) are enrolled. [ISN/RPS 2003 classification of lupus nephritis—classes III (A or A/C), IV-S or IV-G (A or A/C), or class V—pure or in combination with class III or IV].
The overall study duration is up to 32 weeks, with the screening phase being up to 4 weeks, the treatment period being 24 weeks and the follow-up period being 4 weeks for all subjects who complete the 24-week treatment period or subjects who prematurely discontinue treatment prior to Week 24 visit.
Placebo arm—2 capsules of placebo. Mycophenolate Mofetil (MMF)
MMF tablets 500 mg. All treatment arms receive MMF at baseline and throughout the study to a target dose of 2 g/day.
Subjects are assessed for study eligibility up to 4 weeks prior to baseline. Eligible subjects are initially randomized in a 1:1 ratio into one of the following two treatment arms: • 1.
Upon approval, randomization into one of the following three treatment arms occurs in a ratio that allows for reaching an overall target enrollment of approximately 15 subjects per treatment arm. Drop-outs are not replaced. • 1.
In addition, all receive IV methylprednisolone 500 mg/day for 3 days followed by 40 mg/day oral prednisolone/prednisone, which is tapered to not more than 10 mg/day by the end of Week 20, on a fixed steroid tapering regimen).
Any of the following results in early termination from the study: • 1. Increase in serum creatinine without improvement in proteinuria from 8 weeks onward (confirmed by repeated measurement within 2 weeks), defined as: • a. Serum creatinine >1.3 mg/dL that is at least 25% higher than the baseline value; and • b. […] Doubling of protein to creatinine ratio compared to baseline and protein to creatinine ratio >3 from Week 8 onwards (confirmed by repeated measurement within 2 weeks. At least one of the measurements should be a 24 hours urine collection). Outcome Measures Response Definitions • 1. Complete response (CR)—protein to creatinine ratio <0.5 and [decreased serum creatinine by at least 25% compared to baseline or serum creatinine <1.3 mg/dL]. • 2. […] BILAG renal response is defined as change from renal A or B at baseline to C or D. • 4. BILAG Substantial Responder (SR) is defined as all systems at last observed value (LOV) are C or D/E providing at least one system is A or B at baseline. Clinical Effect Outcome Measure Renal—System 1. Proportion of Subjects with Complete or Partial Response at Week 24 and the Lack of Treatment Failure

[6] = in vivo; cited from earlier work
[7] = daily oral 0.5 mg or 1 mg laquinimod with standard of care (MMF and steroids)
[8] = daily oral 0.5 mg or 1 mg laquinimod with standard of care, during the study period

For COc1c(C)c2c(c(O)c1C/C=C(\C)CCC(=O)OCCN1CCOCC1)C(=O)OC2 [MMF, 2-morpholinoethyl (E)-6-(1,3-dihydro-4-hydroxy-6-methoxy-7-methyl-3-oxo-5-isogenzofuranyl)-4-methyl-4-hexenoate, reference compound], the “lung BALT hyperplasia (histopathology)” value ([1]; MMF 100 mg/kg p.o. vs vehicle) was “significant difference”, the “kidney glomerulonephritis (histopathology)” value [1] was “significant reductions” and the “salivary gland inflammation (histopathological scoring)” value [1] was “significant reduction”.

With O=P1(N(CCCl)CCCl)NCCCO1 (stereo not drawn) [CTX, cyclophosphamide] the “proteinuria (PU)” value ((NZBxNZW)F1 mice [2]) was “significantly diminished” and the “immune complex deposition (ICD) in kidney” value ((NZBxNZW)F1 mice [2]) was “significantly inhibited”.

With CN(Cc1cnc2nc(N)nc(N)c2n1)c1ccc(C(=O)N[C@@H](CCC(=O)O)C(=O)O)cc1 [MTX, methotrexate] the “animals died during the treatment period” value ((NZBxNZW)F1 mice [2]; 12 weeks treatment, 80 animals in the study) was 2 and the “symptoms (proteinuria and immune complex deposition in kidney)” value ((NZBxNZW)F1 mice [2]; MTX 35 μg/mouse p.o. 3 times a week, 12 weeks) was “failed to inhibit”.

In the case of CCN(C(=O)c1c(O)c2c(Cl)cccc2n(C)c1=O)c1ccccc1 [laquinimod], the “proteinuria (PU)” value ((NZBxNZW)F1 mice [2]) is reported as “significantly diminished”, the “immune complex deposition (ICD) in kidney” value ((NZBxNZW)F1 mice [2]) is reported as “significantly inhibited” and the progression of proteinuria ((NZBxNZW)F1 mice [3]; all doses of laquinimod (0.2, 1, 5, 25 mg/kg p.o. 5 days a week), vs vehicle) is reported as “abrogated the progression of proteinuria”. For the same molecule, the survival ((NZBxNZW)F1 mice [3]; all doses of laquinimod, 37 weeks) was “significant prolongation of survival”, the “proteinuria, compared with positive control CTX” value ((NZBxNZW)F1 mice [3]; laquinimod doses of 1, 5 and 25 mg/kg) was “as effective as the positive control cyclophosphamide (CTX)” and the proteinuria ((NZBxNZW)F1 mice [3]; laquinimod lowest dose (printed 0.2 mg/ml), compared to the higher doses) was “abrogated proteinuria but not to the same extent”. For the same molecule, the anti-dsDNA levels ((NZBxNZW)F1 mice [3]; serum, Weeks 1, 5, 15 and 37) was “dose dependent reduction in antibody levels over time”, the anti-dsDNA levels ((NZBxNZW)F1 mice [4]; laquinimod 5 mg/kg) was “behaved similarly to the positive control CTX” and the immune complex deposits ((NZBxNZW)F1 mice [4]; laquinimod 5 mg/kg) was “behaved similarly to the positive control CTX”. For the same molecule, the “disease progression as measured by proteinuria” value ((NZBxNZW)F1 mice [4]; laquinimod 0.2 and 5 mg/kg p.o. 5 days a week, 13 weeks) was “abrogated disease progression”, the “ICD (immune complex deposits)” value ((NZBxNZW)F1 mice [4]; laquinimod low dose 0.2 mg/kg) was “did not inhibit” and the “anti-dsDNA Ab titers” value ((NZBxNZW)F1 mice [4]; laquinimod low dose 0.2 mg/kg) was “did not inhibit”. For the same molecule, the proteinuria ((NZBxNZW)F1 mice [4]; laquinimod low dose 0.2 mg/kg) was “prevented increased proteinuria”, the “bone resorption (joint histopathology)” value ([1]; both doses of laquinimod (1 and 5 mg/kg) vs vehicle) was “Significant reductions” and the “salivary gland inflammation score, higher vs lower dose” value ([1]; laquinimod 5 mg/kg compared with 1 mg/kg) was “significantly lower score”. For the same molecule, the “cartilage damage (joint histopathology)” value ([1]; laquinimod 5 mg/kg vs vehicle) was “significant reduction”, the “joint inflammation (histopathology)” value ([1]; laquinimod 5 mg/kg vs vehicle) was “significantly reduced” and the “splenocytes as percent of total spleen cells” value ([1]; laquinimod 5 mg/kg vs vehicle) was “significant reduction”. For the same molecule, the “kidney glomerulonephritis (histopathology)” value [1] was “significant reductions”, the “salivary gland inflammation (histopathological scoring)” value [1] was “significant reduction” and the “measures during the in life phase (proteinuria, ankle and paw diameters, dsDNA autoantibody levels, survival)” value ([1]; laquinimod 1 or 5 mg/kg p.o., trends not significant except sporadic time points) was “trend toward dose dependent efficacy”. The “effect of the combination of laquinimod, MMF and steroids on active lupus nephritis” value ([5]; 0.5 mg and 1.0 mg laquinimod daily with MMF and steroids) was “significantly more than the additive effect of each agent alone”, the “complete response (CR)” value [5, 7] was “results in a complete response” and the “partial response (PR)” value [5, 7] was “results in a partial response”. The proteinuria [5, 7] was “reduces proteinuria”, the tolerability and toxicity [5, 7] was “well tolerated and has no toxicity” and the “treatment of active lupus nephritis” value [5, 7] was “effective to treat active lupus nephritis”. For the same molecule, the urinary sediments [5, 7] was “eliminates urinary sediments”, the “decrease of glomerular filtration rate (GFR) as compared to baseline” value [5, 8] was “no more than 10%” and the “glomerular filtration rate (GFR) reached” value [5, 8] was “greater than 70 ml/min/1.73 m^2”. For the same molecule, the “increase of glomerular filtration rate (GFR) as compared to baseline” value [5, 8] was “at least 25%” and the oral bioavailability [6] was “high”.
